# Tests used:
# Type in all cases: physicochemical
# [1] = Variable Temperature X-Ray Powder Diffraction (VT-XRPD); set-up: key: Crystalline Form 2 di(hydrogen sulfate) trihydrate; Crystalline Form 5 di(hydrogen sulfate); PC: Poorly Crystalline; details: second Heating, hold 30 min
# Experimental: (§1) In the examples below, VT-XRPD analysis was carried out on a Philips X'Pert Pro Multipurpose diffractometer equipped with a temperature chamber. The samples were scanned between 4 and 36° 2θ using Cu K radiation (α1 λ=1.54060 Å; α2=1.54443 Å; β=1.39225 Å; α1: α2 ratio=0.5; most, if not all, B radiation is removed from the beam using an X-ray mirror) running in Bragg-Brentano geometry (step size 0.008° 2θ) using 40 kV/40 mA generator settings. Measurements were carried out from ambient temperature to an upper limit of 250° C., with a final measurement taken after cooling.
# (§2) VT-XRPD analysis was carried out on a Philips X'Pert Pro Multipurpose diffractometer equipped with a temperature chamber. The samples were scanned between 4 and 36° 2θ using Cu K radiation (α1 λ=1.54060 Å; α2=1.54443 Å; β2=1.39225 Å; α1:α2 ratio=0.5; most, if not all, β radiation is removed from the beam using an X-ray mirror) running in Bragg-Brentano geometry (step size 0.008° 2θ) using 40 kV/40 mA generator settings. Measurements were carried out from ambient temperature to an upper limit of 250° C., with a final measurement taken after cooling.
# [2] = Variable Humidity X-Ray Powder Diffraction (VH-XRPD)
# Experimental: In the examples below, VH-XRPD analysis was carried out on a Philips X'Pert Pro Multipurpose diffractometer equipped with a humidity chamber. The samples were scanned between 4 and 36° 2θ using Cu K radiation (α1λ=1.54060 Å; α2=1.54443 Å; β=1.39225 Å; α1: α2 ratio=0.5; most, if not all, B radiation is removed from the beam using an X-ray mirror) running in Bragg-Brentano geometry (step size 0.008° 2θ) using 40 kV/40 mA generator settings. Measurements were carried out from 2-90% RH, with a final measurement taken at 40% RH.
# VH-XRPD analysis was carried out on a Philips X'Pert Pro Multipurpose diffractometer equipped with a humidity chamber. The samples were scanned between 4 and 36° 2θ using Cu K radiation (α1 λ=1.54060 Å; α2=1.54443 Å; β=1.39225 Å; α1:α2 ratio=0.5; most, if not all, β radiation is removed from the beam using an X-ray mirror) running in Bragg-Brentano geometry (step size 0.008° 2θ) using 40 kV/40 mA generator settings. Measurements were carried out from 6-90% relative humidity (RH), with a final measurement taken at 40% RH.
# [3] = Variable Temperature X-Ray Powder Diffraction (VT-XRPD); set-up: key: Crystalline Form 3 di(hydrogen sulfate); Crystalline Form 9 di(hydrogen sulfate); Melt/Amorphous
# Experimental: as §1, §2
# [4] = hydration mapping studies (slurries at different water activities, Example 17)
# Experimental: Example 17—Hydration Mapping Studies-Crystalline Form 2 Compound 1 di(hydrogen sulfate) trihydrate, Crystalline Form 3 Compound 1 di(hydrogen sulfate), and Blend: The effects of different water activities on crystalline Form 2 Compound 1 di(hydrogen sulfate) trihydrate, crystalline Form 3 Compound 1 di(hydrogen sulfate) and a blend of the two were investigated. The “blend” was prepared by mixing crystalline Form 2 Compound 1 di(hydrogen sulfate) trihydrate and crystalline Form 3 Compound 1 di(hydrogen sulfate) in a 1:1 ratio. To the vials containing the required solid material, the appropriate solvent system was added to form slurries. The slurry samples were stirred at the required temperatures during and after the solvent addition. Where dissolution was observed post-solvent addition, additional solid was added to re-saturate the sample. After stirring at the required temperature for 48 hours, the residual solids left in the vials were analyzed by XRPD to assess the solid forms. The analyzed samples were then dried on the XRPD plate under reduced pressure at 40° C. for 24 hr. The dried samples were analyzed by XRPD.
# [5] = pH solubility studies in buffers and biorelevant media (Example 16); set-up: key: A: amorphous; Crystalline Form 10 mono(hydrogen sulfate); details: pH 6.8 (Phosphate), 24 h
# Experimental: Example 16—pH Solubility Studies—(1) Crystalline Form 2 Compound 1 di(hydrogen sulfate) trihydrate, (2) Crystalline Form 3 Compound 1 di(hydrogen sulfate), and (3) Crystalline Form 4 Compound 1 mono(hydrogen sulfate): pH solubility studies were carried out on the prepared crystalline Form 2 Compound 1 di(hydrogen sulfate) trihydrate, crystalline Form 3 Compound 1 di(hydrogen sulfate) and crystalline Form 4 Compound 1 mono(hydrogen sulfate) in the following media: (1) HCl/KCl, pH 1.2; (2) Acetate, pH 4.5; (3) Phosphate, pH 6.8; (4) FaSSIF; (5) FeSSIF; and (6) FaSSGF. Slurries of the hydrogen sulfate forms were prepared in the appropriate medium and stirred at 25° C. For the experiments in the buffer media, the pH of the slurry samples was measured and adjusted as required after 1 hour and 23 hours of the slurrying. Additional solid was added where dissolution was observed post-adjustment. The pH of the samples in the biorelevant media was measured at the 23 hour timepoint. No pH adjustment was made for the biorelevant media. After a total of 24 hours of slurrying, the mother liquors were extracted via centrifugation, and the concentrations and solution purity were determined by HPLC. The residual solids were isolated and analyzed by XRPD and are shown in FIG. 77, FIG. 78, and FIG. 79. The assessment was repeated for some of the samples, where required.
# [6] = second Heating, 150° C., hold 30 min
# [7] = second Heating, 160° C., hold 30 min
structure (smiles),measurement,setting,value
CCCN1CCNCCCNC(=O)c2cc(OC)c(OC)c(c2)OCCC[C@@H](OC(=O)c2cc(OC)c(OC)c(OC)c2)CC1,VT-XRPD Results,[1]; 120° C.,5
same,VT-XRPD Results,[1]; 130° C.,5
same,VH-XRPD: Conv. To Form 5 at,[2],5 at 6% RH
same,VH-XRPD: input form retained at,[2],at 10-80% RH
same,VH-XRPD Results,"[2]; Desorption, 6% RH, hold 60 min","5, PC"
same,VT-XRPD Results,[3]; [6],Melt
same,VT-XRPD Results,[3]; [7],Melt
same,solid form by XRPD after slurrying,"[4]; acetonitrile:water (aw=0.1) at 50° C., 48 hours",conversion to crystalline Form 6 Compound 1 di(hydrogen sulfate)
same,solid form by XRPD after slurrying,"[4]; the rest of the samples, 48 hours",consistent with crystalline Form 2 Compound 1 di(hydrogen sulfate) trihydrate
COc1cc(C(=O)O[C@@H]2CCCOc3cc(cc(OC)c3OC)C(=O)NCCCN3CCCN(CC2)CC3)cc(OC)c1OC.O=S(=O)(O)O,XRPD of residual solids,[5]; 25° C.,A
COc1cc(C(=O)O[C@@H]2CCCOc3cc(cc(OC)c3OC)C(=O)NCCCN3CCCN(CC2)CC3)cc(OC)c1OC.O=S(=O)(O)O.O=S(=O)(O)O [crystalline Form 3 Compound 1 di(hydrogen sulfate)],XRPD of residual solids,"[5]; attempt 1, 25° C.",A
same,XRPD of residual solids,"[5]; attempt 2, 25° C.",A
same,VH-XRPD: Conv. To Form 6→Form 2 at,[2],Form 2 at ≥70% RH
same,VH-XRPD: input form retained at,[2],at 10-60% RH
same,relative humidity range in which peaks of crystalline Form 6 Compound 1 di(hydrogen sulfate) are observed in addition,[2],70-80 % RH
same,relative humidity range in which the form is retained (VH-XRPD),[2],2-60 % RH
same,relative humidity at which conversion to crystalline Form 2 Compound 1 di(hydrogen sulfate) trihydrate is observed,[2]; Form 3: after extended exposure,≥ 80 % RH
same,VT-XRPD Results,"[3]; Cooling, 30° C., hold 10 min",9
same,VT-XRPD Results,"[3]; Heating, 70° C., hold 30 min",9
same,VT-XRPD Results,"[3]; Heating, 90° C., hold 30 min",9
same,VT-XRPD Results,"[3]; Heating, 105° C., hold 30 min",9
same,VT-XRPD Results,"[3]; second Heating, 120° C., hold 30 min",9
same,VT-XRPD Results,"[3]; second Heating, 130° C., hold 30 min",9
same,VT-XRPD Results,"[3]; second Heating, 140° C., hold 30 min",9
same,VT-XRPD Results,[3]; [6],9
same,VT-XRPD Results,[3]; [7],9 and Melt
same,solid form by XRPD after slurrying,"[4]; solvent systems with aw=0.1, 48 hours",retained
same,solid form by XRPD after slurrying,"[4]; solvent systems with aw=0.9, 48 hours",Conversion to crystalline Form 2 Compound 1 di(hydrogen sulfate) trihydrate
